Data published in PMC4085797, “Synthetic Inositol Phosphate Analogs Reveal that PPIP5K2 Has a Surface-Mounted Substrate Capture Site that Is a Target for Drug Discovery” (Chemistry & Biology, 2014).
Substitutions are numbered along the chain they refer to.

How the values were obtained:
Type in all cases: biochemical
[1] = biological target: T1, PPIP5K2^KD K54A mutant (Homo sapiens, UniProt O43314, K54A); assay: ATPase activity of K54A mutant; details: Figures 7B and 7C
T1 construct: The kinase domain of human PPIP5K2 (PPIP5K2^KD; residues 1–366); made in house
T1 sequence (O43314 1-366 K54A): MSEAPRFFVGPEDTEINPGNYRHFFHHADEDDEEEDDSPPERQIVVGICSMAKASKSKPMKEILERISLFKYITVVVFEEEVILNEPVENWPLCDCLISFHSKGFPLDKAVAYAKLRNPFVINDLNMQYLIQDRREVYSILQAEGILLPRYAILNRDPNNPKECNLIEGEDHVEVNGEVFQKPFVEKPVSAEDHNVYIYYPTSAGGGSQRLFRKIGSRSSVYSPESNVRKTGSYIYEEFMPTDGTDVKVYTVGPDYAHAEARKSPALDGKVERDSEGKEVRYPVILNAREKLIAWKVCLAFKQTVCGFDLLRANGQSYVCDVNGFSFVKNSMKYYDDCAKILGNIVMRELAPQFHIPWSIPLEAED
Protocol: (§1) The initial InsP6 concentration was either 500 nM, 70 nM, or 40 nM. Various concentrations of 2,5-di-O-Bn-InsP4 were present as indicated. Radioactivity was assessed using an in-line Flo1 detector. The ADP-driven dephosphorylation of 100 nM 1,5-[PP]2-InsP4 by PPIP5K2^KD was usually determined by a luminescence-based assay of ATP accumulation ([Riley et al., 2012; Weaver et al., 2013]). The IC50 values were determined using GraphPad Prism v6.02 (n ≥ 3). In some experiments, 1,5-[PP]2-[^3H]InsP4 dephosphorylation by PPIP5K2^KD was assayed in 50 μl buffer containing 50 mM KCl, 20 mM HEPES pH 7.0, 7 mM MgSO4, 5 mM ADP, 1 mM EDTA. Reactions were then quenched, neutralized, and analyzed with HPLC using a Partisphere SAX column ([Weaver et al., 2013]); 1 ml fractions were collected for liquid scintillation spectrometry. The ATPase activity of PPIP5K2^KD (10–270 μg/ml) was assayed from Pi release following incubation at 37°C for 120–180 min in 20 μl reaction mixtures containing 20 mM Tris/HCl, pH 7.5, 10 mM ATP, 100 mM KCl, 0.1 mM EDTA, and 13 mM MgCl2.
Protein Expression, Purification, Crystallization and Structure Determination […]
The structure was further manually rebuilt with COOT and refined with PHENIX and
REFMAC from the CCP4 package. Ligand topology and parameter files were prepared using
the PRODRG server. The molecular graphics representations were prepared with the program […]

[2] = biological target: T2, PPIP5K2^KD (kinase domain of human PPIP5K2) (Homo sapiens, UniProt O43314); assay: Reverse-kinase assay: ADP-driven dephosphorylation of 1,5-[PP]2-InsP4, luminescence-based assay of ATP accumulation; details: for IC50: 100 nM [PP]2-InsP4, key of Figure 4B, n = 3, read-out: IC50, inhibition of ADP-driven dephosphorylation of [PP]2-InsP4
T2 construct: The kinase domain of human PPIP5K2 (PPIP5K2^KD; residues 1–366); made in house
T2 sequence (O43314 1-366): T1 sequence (O43314 1-366 K54A) with A54K
Protocol: The six compounds that were selected for the dose-response curves in the assays of ATP hydrolysis (Figure 4A) were now investigated for their effects upon diphosphoinositol polyphosphate metabolism by PPIP5K2^KD (Figure 4B). We used a high-throughput reverse-kinase assay that records ATP generated from ADP during the dephosphorylation of 100 nM 1,5-[PP]2-InsP4 ([Riley et al., 2012; Weaver et al., 2013]). Each of the tested analogs inhibited [PP]2-InsP4 metabolism by PPIP5K2^KD (Figure 4B). […] However, the inhibition by 2,5-di-O-Bn-InsP4 (10) was more unexpected because due to its bulk, and its less negative charge compared to physiological substrates, we predict it to be a poor ligand for the active site of the highly specific PPIP5K2^KD ([Wang et al., 2012]). Nevertheless, its ability to inhibit reverse-kinase activity was directly confirmed by high-performance liquid chromatography (HPLC) analysis of [PP]2-[^3H]InsP4 dephosphorylation (Figures S1A–S1C available online).
as §1

[3] = biological target: T3, PPIP5K2^KD R213A mutant (Homo sapiens, UniProt O43314, R213A); assay: ATPase activity of R213A mutant; details: Figures 7B and 7C
T3 construct: The kinase domain of human PPIP5K2 (PPIP5K2^KD; residues 1–366); made in house
T3 sequence (O43314 1-366 R213A): T1 sequence (O43314 1-366 K54A) with A54K, R213A
Protocol: as §1

[4] = biological target: T4, PPIP5K2^KD H194A mutant (Homo sapiens, UniProt O43314, H194A); assay: ATPase activity of H194A mutant; details: data not shown
T4 construct: The kinase domain of human PPIP5K2 (PPIP5K2^KD; residues 1–366); made in house
T4 sequence (O43314 1-366 H194A): T1 sequence (O43314 1-366 K54A) with A54K, H194A
Protocol: as §1

inhibition of [PP]2-InsP4 metabolism (in words) ([2]; 100 nM 1,5-[PP]2-InsP4, Figure 4B)	IC50 [2] [nM]	Structure (SMILES)	stimulation of ATPase activity vs wild-type (in words) [1]	stimulation of ATPase activity vs wild-type (in words) [3]	ATPase activity in the presence of analog (in words) [4]
equally efficient	420	O=C(CP(=O)(O)O)O[C@@H]1[C@@H](OP(=O)(O)O)[C@H](OP(=O)(O)O)[C@H](OCc2ccccc2)[C@H](OP(=O)(O)O)[C@H]1OP(=O)(O)O [compound 2, 2-O-benzyl-5-O-α-phosphonoacetyl-myo-inositol 1,3,4,6-tetrakisphosphate]	substantially impaired degree of stimulation	substantially impaired degree of stimulation	did not exhibit any detectable ATPase activity
	170	O=P(O)(O)O[C@@H]1[C@@H](OCc2ccccc2)[C@H](OP(=O)(O)O)[C@@H](OP(=O)(O)O)[C@@H](OCc2ccccc2)[C@H]1OP(=O)(O)O [compound 10, 2,5-di-O-Bn-InsP4]	substantially impaired degree of stimulation	substantially impaired degree of stimulation	did not exhibit any detectable ATPase activity
